Assay results published in PMC9194936, “Preclinical Activity and Pharmacokinetic/Pharmacodynamic Relationship for a Series of Novel Benzenesulfonamide Perforin Inhibitors” (ACS Pharmacology & Translational Science, 2022).

Legend:
[1] = parameters: method as in PMID 28582670; AUC: concentration or dose not given beside the values; conditions: mouse plasma; cited from earlier work
[2] = target: T1, perforin (Mus musculus, UniProt P10820); experiment: In vivo perforin inhibition (allogeneic bone marrow transfer assay); conditions: for % perforin inhibition, spleen: 24 h after transplant
T1 construct: endogenous in cells; host or cells: recipient cytotoxic lymphocytes (NK/CTL) of wild-type C57BL/6 mice, in vivo
T1 sequence (P10820 21-554): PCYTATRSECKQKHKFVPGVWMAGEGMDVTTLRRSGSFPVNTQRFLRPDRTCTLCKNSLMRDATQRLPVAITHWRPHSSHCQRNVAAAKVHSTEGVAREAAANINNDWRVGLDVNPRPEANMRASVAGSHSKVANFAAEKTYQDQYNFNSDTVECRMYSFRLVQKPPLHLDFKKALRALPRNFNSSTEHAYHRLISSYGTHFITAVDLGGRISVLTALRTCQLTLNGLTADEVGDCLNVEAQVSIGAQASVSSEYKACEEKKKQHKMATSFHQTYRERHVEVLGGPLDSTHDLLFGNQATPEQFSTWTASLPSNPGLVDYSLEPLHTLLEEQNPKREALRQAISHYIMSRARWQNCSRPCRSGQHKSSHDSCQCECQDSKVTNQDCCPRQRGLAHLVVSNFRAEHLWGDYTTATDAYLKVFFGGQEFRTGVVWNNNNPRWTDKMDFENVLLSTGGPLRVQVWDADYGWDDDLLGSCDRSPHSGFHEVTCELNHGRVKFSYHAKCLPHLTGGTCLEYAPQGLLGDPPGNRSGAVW
Procedure: This model was selected as a surrogate assay for graft rejection during allogeneic bone marrow/stem cell transplantation to enable rapid testing of perforin inhibition in vivo. Mice were transplanted with a mixture of equal numbers of allogeneic immunologically mismatched and syngeneic immunologically matched bone marrow. […] Allogeneic cell survival in spleen and peripheral blood was determined 24 h after transplant, using C57BL/6 perforin-deficient mice (100% perforin inhibition) and untreated C57BL/6 mice (0% perforin inhibition) as controls.
Compounds were tested for in vivo efficacy as described previously.[14] Age- (8–12 weeks) and sex-matched wild-type (H-2D^b, CD45.2^+) or perforin-deficient C57BL/6 mice (C57BL/6-Prf1^tm1Sdz/J; H-2D^b, CD45.2^+) received 12 ×10^6 bone marrow cells from both allogeneic BALB/c (H-2D^d) MHC-mismatched and syngeneic C57BL/6 (H-2D^b) MHC-matched mice (24 × 10^6 cells total). The wild-type recipient mice were treated with perforin inhibitor compounds by intraperitoneal injection in 20% hydroxypropyl-β-cyclodextrin vehicle (10 mL/kg), or with vehicle alone; perforin-deficient mice remained untreated. The mice were euthanized 24 h after bone marrow transfer for peripheral blood mononuclear cell (PBMC) and spleen collection.
Throughout the study, we utilized two strategies to distinguish between recipient, donor allogeneic, and donor syngeneic cells based on either fluorescent labeling prior to transplant or congenic marker expression (CD45.1/CD45.2). In the fluorescent dye approach, allogeneic wild-type BALB/c (H-2D^d, CD45.2^+) bone marrow was labeled with 1 μM carboxyfluorescein succinimidyl ester (CFSE) prior to mixing with syngeneic bone marrow from C57BL/6 congenic mice (CD45.1^+). Twenty-four hours after cell transfer, the harvested cells were stained with anti-CD45.1-phycoerythrin and anti-TER119-allophycocyanin monoclonal antibodies (BioLegend, San Diego, CA). TER119 was used for erythroid exclusion prior to the identification of allogeneic (CFSE^+) and syngeneic (CD45.1^+) donor cells. Using a second purely congenic marker approach, allogeneic BALB/c congenic (H-2D^d, CD45.1^+) bone marrow was mixed with syngeneic C57BL/6 double congenic (H-2D^b, CD45.1^+CD45.2^+) bone marrow prior to transfer. The harvested cells were stained with anti-CD45.1-phycoerythrin, anti-CD45.2-phycoerythrin-cyanine-7, and anti-TER119-allophycocyanin monoclonal antibodies (BioLegend, San Diego, CA). TER119 was used for erythroid exclusion, prior to identification of allogeneic donor (CD45.1^+), syngeneic donor (CD45.1^+ CD45.2^+), and recipient (CD45.2^+) cells. Dead cells were excluded using 7-aminoactinomycin D. Samples were acquired with an LSR Fortessa (BD Biosciences) and analyzed using FlowJo version 9 software (BD Biosciences). Prism version 9 (GraphPad) was used to calculate CTL indices as the percentage survival of syngeneic donor cells divided by the percentage survival of allogeneic donor cells. […] In vivo perforin inhibition animal experiments were approved by the Animal Ethics Committee of the QIMR Berghofer Medical Research Institute.

[3] = test system: recombinant perforin; parameters: method as in PMID 28582670, PMID 28110869; conditions: lytic activity of recombinant perforin against Jurkat T leukemia cells; cited from earlier work
[4] = test system: perforin-dependent cytotoxicity of KHYG-1 NK cells on K562 target cells; experiment: KHYG-1 cytotoxicity assay (51Cr-labeled K562 target cells); assay type: cell-based; conditions: Homo sapiens; concentration inhibiting 90% of perforin-dependent cytotoxicity; K562 targets, effector/target 2:1, 4 h, RPMI 0.1% BSA; read-out: KHYG-1 IC90
Procedure: (Table 1). […] An IC90 was used rather than an IC50 as we anticipated that elevated suppression of perforin activity is likely required to preserve the transplanted bone marrow stem cells in vivo.
The inhibition of the cytotoxic activity of KHYG-1 NK cells on K562 target cells was determined as described previously.[14] Briefly, compounds were added to KHYG-1 cells at 6–7 concentrations ranging from 20 μM to 312.5 nM in 2-fold dilutions in RPMI medium (Thermo Fisher Scientific, Waltham, MA) supplemented with 0.1% bovine serum albumin (BSA; Sigma-Aldrich, St. Louis, MO) for 20 min. ^51Cr-labeled K562 leukemia target cells were added to KHYG-1 cells at an effector/target ratio of 2:1 and incubated at 37 °C for 4 h. ^51Cr release was assayed using a Harvesting Press (Skatron Instruments, Lier, Norway), and radioactivity was estimated on a Wallac Wizard 1470 Automatic γ counter (Turku, Finland). The IC90 values were calculated by fitting a four-parameter logistic sigmoidal dose–response curve to the data using Prism version 8 (GraphPad, San Diego, CA). Each IC90 value represents the mean of at least three independent experiments, where six to seven concentrations were tested in triplicate for each compound.

[5] = Plasma protein binding by equilibrium dialysis; assay type: in vitro ADME, mouse; conditions: CD1, pH 7.4; mouse plasma, 10 μM, equilibrium dialysis
Procedure: The plasma protein binding of the compounds was determined by equilibrium dialysis (12–14 kDa cutoff membrane). […] The dialysis unit was covered with an adhesive sealing film to prevent evaporation of the contents and placed in an incubator (Innova-42, New Brunswick Scientific) maintained at 37 °C with gentle mixing (80 rpm) for 6 h. Next, a 10 μL sample was aspirated from the plasma side and mixed with 90 μL of fresh PBS, whereas a 90 μL sample from the buffer side was removed and combined with 10 μL of drug-free plasma to ensure uniform matrix composition. Ice-cold acetonitrile (300 μL; Merck Millipore, Burlington, MA) containing internal standard (a BZS analogue of similar chemical structure) was added to each sample to precipitate protein and was vortexed for 2 min and centrifuged for 5 min at 13 000 rpm. The supernatant was diluted with 0.01% formic acid in ultrapure water (Milli-Q) (1:1) and quantitated by liquid chromatography–tandem mass spectrometry (LC-MS/MS). Each compound was tested in triplicate alongside control compounds known to have low (e.g., lidocaine) and high (e.g., amitriptyline) plasma protein binding. For media binding studies, the same assay was used, but RPMI with 0.1% BSA was used in place of CD1 mouse plasma.

[6] = Splenocyte cellularity and tolerability in the bone marrow transfer assay; assay type: in vivo
Procedure: For the determination of splenic cell counts, mouse spleens were harvested and the cells dispersed in media by gentle teasing and then centrifuged at 500g. Cell pellets were resuspended in media and total spleen cell counts were performed manually using a standard hemocytometer and light microscopy. […] Peripheral blood cell counts and spleen white blood cell counts were determined on a Beckman Coulter Ac.T diff hematology analyzer.

[7] = 100 mg/kg qd x 4 (0, 24, 48 h prior to and 18 h after transfer)
[8] = all dose levels (100, 75 and 50% of MTD), qd x 4

Structure (SMILES) | % perforin inhibition, spleen [2, 7] [%] | fraction unbound at 6 h, 10 μM [5] | % perforin inhibition, spleen ([2]; 160 mg/kg qd x 4 (0, 24, 48 h prior to and 18 h after transfer)) [%] | AUC [1] [µM·h] | Cmax [1] [µM] | IC50 [3] [µM] | IC90 [4] [µM] | reductions in splenocyte number [6, 8] | tolerability [6, 8] | % perforin inhibition, spleen ([2]; 60 mg/kg qd x 4 (0, 24, 48 h prior to and 18 h after transfer)) [%] | % perforin inhibition, spleen ([2]; 90 mg/kg qd x 4 (0, 24, 48 h prior to and 18 h after transfer)) [%] | reduction in splenocyte cellularity ([6]; dose at or near MTD, qd x 4, after allogeneic bone marrow transplantation) | % perforin inhibition, spleen ([2]; 120 mg/kg qd x 4 (0, 24, 48 h prior to and 18 h after transfer)) [%] | increase in allogeneic bone marrow survival in the spleen, % of that seen in perforin-deficient mice ([2]; dose at or near the MTD, 0, 24, 48 h prior to and 18 h after cell transfer) [%]
CN1Cc2cc(-c3ccc(-c4cncc(NS(=O)(=O)c5ccc(F)cc5F)c4)s3)ccc2C1=O [Compound 3, 2,4-difluoro-N-{5-[5-(2-methyl-1-oxo-2,3-dihydro-1H-isoindol-5-yl)-2-thienyl]-3-pyridinyl}benzenesulfonamide] |  |  |  | 220 | 9.8 |  | 16 ± 3.6 | only minor reductions | well tolerated | 7 | 10 |  |  | 
CN1Cc2cc(-c3ccc(-c4cnc(Cl)c(NS(=O)(=O)c5ccc(F)cc5F)c4)s3)ccc2C1=O [Compound 9, N-{2-chloro-5-[5-(2-methyl-1-oxo-2,3-dihydro-1H-isoindol-5-yl)-2-thienyl]-3-pyridinyl}-2,4-difluorobenzenesulfonamide] |  | 0.0002 |  | 2364 | 149 | 1.03 | 1.86 ± 0.44 |  |  |  |  | much higher | 61.28 | 61
CN1Cc2cc(-c3ccc(-c4cncc(NS(=O)(=O)c5ccc([N+](=O)[O-])cc5)c4)s3)ccc2C1=O [Compound 4, N-{5-[5-(2-methyl-1-oxo-2,3-dihydro-1H-isoindol-5-yl)-2-thienyl]-3-pyridinyl}-4-nitrobenzenesulfonamide] | 80.53 | 0.0031 |  | 383 | 64.4 | 3.13 | 19.9 ± 3.7 |  |  |  |  |  |  | 

Further lines, with some results ahead:

% perforin inhibition, spleen [2, 7] [%] | fraction unbound at 6 h, 10 μM [5] | % perforin inhibition, spleen ([2]; 160 mg/kg qd x 4 (0, 24, 48 h prior to and 18 h after transfer)) [%] | Structure (SMILES) | AUC [1] [µM·h] | Cmax [1] [µM] | IC50 [3] [µM] | IC90 [4] [µM] | reductions in splenocyte number [6, 8] | tolerability [6, 8] | % perforin inhibition, spleen ([2]; 60 mg/kg qd x 4 (0, 24, 48 h prior to and 18 h after transfer)) [%] | % perforin inhibition, spleen ([2]; 90 mg/kg qd x 4 (0, 24, 48 h prior to and 18 h after transfer)) [%] | reduction in splenocyte cellularity ([6]; dose at or near MTD, qd x 4, after allogeneic bone marrow transplantation) | % perforin inhibition, spleen ([2]; 120 mg/kg qd x 4 (0, 24, 48 h prior to and 18 h after transfer)) [%] | increase in allogeneic bone marrow survival in the spleen, % of that seen in perforin-deficient mice ([2]; dose at or near the MTD, 0, 24, 48 h prior to and 18 h after cell transfer) [%]
22.70 | 0.0023 |  | CN1Cc2cc(-c3ccc(-c4cncc(NS(=O)(=O)c5ccc(C#N)cc5)c4)s3)ccc2C1=O [Compound 6, 4-cyano-N-{5-[5-(2-methyl-1-oxo-2,3-dihydro-1H-isoindol-5-yl)-2-thienyl]-3-pyridinyl}benzenesulfonamide] | 642 | 87.3 | 5.17 | 30.9 ± 10.5 |  |  |  |  |  |  | 
14.88 | 0.0048 |  | CN1Cc2cc(-c3ccc(-c4cncc(NS(=O)(=O)c5c(F)cc(F)cc5F)c4)s3)ccc2C1=O [Compound 5, 2,4,6-trifluoro-N-{5-[5-(2-methyl-1-oxo-2,3-dihydro-1H-isoindol-5-yl)-2-thienyl]-3-pyridinyl}benzenesulfonamide] | 1019 | 124 | 1.76 | 10.1 ± 1.8 |  |  |  |  |  |  | 
 | 0.0003 | 39.14 | CN1Cc2cc(-c3ccc(-c4cnc(F)c(NS(=O)(=O)c5ccc(F)cc5F)c4)s3)ccc2C1=O [Compound 8, 2,4-difluoro-N-{2-fluoro-5-[5-(2-methyl-1-oxo-2,3-dihydro-1H-isoindol-5-yl)-2-thienyl]-3-pyridinyl}benzenesulfonamide] | 2885 | 236 | 1.99 | 3.54 ± 0.65 |  |  |  |  |  |  | 
